Source: patent US8470811B2, “Substituted heterocyclylbenzylpyrazoles and use thereof” (Bayer Intellectual Property GmbH, priority 2010, dated 2013)

How the values were obtained:
[1] = Pharmacokinetic parameters after peroral administration in rats; format: in vivo; details: for half-life: rat, plasma, po
Protocol: (§1) The substance to be examined was administered to animals (for example mice or rats) intravenously as a solution (for example in corresponding plasma with a small addition of DMSO or in a PEG/ethanol/water mixture), and peroral administration was effected as a solution (for example in Solutol/ethanol/water or PEG/ethanol/water mixtures) or as a suspension (e.g. in tylose), in each case via a gavage. After administration of the substance, blood was taken from the animals at fixed times. The blood was heparinized, then plasma was obtained therefrom by centrifugation. The substance was quantified analytically in the plasma via LC-MS/MS. From the plasma concentration/time plots determined in this way, using an internal standard and with the aid of a validated computer program, the pharmacokinetic parameters, such as AUC (area under the concentration/time curve), Cmax (maximum plasma concentration), t1/2 (half life), VSS (distribution volume) and CL (clearance), and the absolute and relative bioavailability F and Frel (i.v./p.o. comparison or comparison of suspension to solution after p.o. administration), were calculated.
To determine the active ingredient release from a prodrug compound, the prodrug was administered either intravenously or perorally, as described above, and the concentrations both of the prodrug and of the active ingredient released were quantified in the processed plasma.
The substance to be examined was administered perorally to rats, in each case in amounts between 1 and 3 mg/kg as a solution in Solutol/ethanol/water (40:10:50 or 40:20:40). The kinetic parameters determined for Working Example 1 are shown below by way of example for the inventive compounds [AUCnorm=dose-normalized exposure (area under the concentration/time curve)]:
The second row in this table gives the pharmacokinetic parameters for Example 1, as obtained after peroral administration of the prodrug compound from Example 15 (1 mg/kg of crystalline substance as a tylose suspension in water).

[2] = pH-dependent hydrolysis stability; format: physicochemical
Protocol: 0.3 mg of the test substance (prodrug) was weighed into a 2 ml HPLC vial, and 0.6 ml of acetonitrile or acetonitrile/DMSO mixture (with up to 20 percent by volume of DMSO) was added. To dissolve the substance, the sample vessel was placed into an ultrasound bath for approx. 10 seconds. Subsequently, 1.0 ml of the particular aqueous buffer solution was added (commercially available buffer solutions of pH 2, 4, 6.5, 8 and 10) and the sample was treated again in the ultrasound bath. Over a period of 24 hours at 37° C., 5 μl of the sample solution were analysed by HPLC every hour for its content of unchanged prodrug or active ingredient released therefrom by hydrolysis. Quantification was effected via the area percentages of the corresponding HPLC peaks.

[3] = Pharmacokinetic parameters after intravenous administration in rats; format: in vivo; details: for half-life / Vd / clearance: rat, iv, 0.3-1.0 mg/kg, solution in plasma with up to 2% DMSO; for Vd: read-out: VSS; for clearance: read-out: CLplasma (converted)
Protocol: as §1
The substance to be examined was administered intravenously to rats, in each case in amounts between 0.3 and 1.0 mg/kg as a solution in plasma which contained up to 2% DMSO.

[4] = rats, 1-3 mg/kg, solution in Solutol/ethanol/water
[5] = rats, p.o., 1-3 mg/kg, solution in Solutol/ethanol/water

Cc1cc(-c2nc(-c3ccc(OC(F)(F)F)cc3)no2)nn1Cc1cccc(N2CC(OC(=O)CN(C)C)C2)c1 [Example 15, 1-{3-[(5-Methyl-3-{3-[4-(trifluoromethoxy)phenyl]-1,2,4-oxadiazol-5-yl}-1H-pyrazol-1-yl)methyl]phenyl}azetidin-3-yl N,N-dimethylglycinate]
prodrug compound itself in the plasma of the rats ([1]; after p.o. administration of Example 15, 1 mg/kg tylose suspension, all times examined): not detectable
% Example 15 prodrug ([2]; pH 2, 37° C., 12 h): 89%
% Example 15 prodrug ([2]; pH 4, 37° C., 12 h): 89%
% Example 15 prodrug ([2]; pH 6.5, 37° C., 0 h): 94%
% Example 15 prodrug ([2]; pH 6.5, 37° C., 2 h): 91%
% Example 15 prodrug ([2]; pH 6.5, 37° C., 4 h): 87%
% Example 15 prodrug ([2]; pH 6.5, 37° C., 6 h): 84%
% Example 15 prodrug ([2]; pH 6.5, 37° C., 12 h): 73%
% Example 15 prodrug ([2]; pH 6.5, 37° C., 24 h): 56%
% Example 15 prodrug ([2]; pH 8, 37° C., 12 h): 64%
% Example 15 prodrug ([2]; pH 10, 37° C., 12 h): 0%
% Example 1 active ingredient ([2]; released from Example 15, pH 2, 37° C., 12 h): 6%
% Example 1 active ingredient ([2]; released from Example 15, pH 4, 37° C., 12 h): 9%
% Example 1 active ingredient ([2]; released from Example 15, pH 6.5, 37° C., 0 h): 3%
% Example 1 active ingredient ([2]; released from Example 15, pH 6.5, 37° C., 2 h): 7%
% Example 1 active ingredient ([2]; released from Example 15, pH 6.5, 37° C., 4 h): 10%
% Example 1 active ingredient ([2]; released from Example 15, pH 6.5, 37° C., 6 h): 13%
% Example 1 active ingredient ([2]; released from Example 15, pH 6.5, 37° C., 12 h): 22%
% Example 1 active ingredient ([2]; released from Example 15, pH 6.5, 37° C., 24 h): 35%
% Example 1 active ingredient ([2]; released from Example 15, pH 8, 37° C., 12 h): 30%
% Example 1 active ingredient ([2]; released from Example 15, pH 10, 37° C., 12 h): 78%

Cc1ccc(Cn2nc(-c3nc(-c4ccc(OC(F)(F)F)cc4)no3)cc2C)cc1 [Example 1 in WO 2008/141731-A2, 5-[5-methyl-1-(4-methylbenzyl)-1H-pyrazol-3-yl]-3-[4-(trifluoromethoxy)phenyl]-1,2,4-oxadiazole, reference compound]
CLplasma ([3]; intravenous administration): 0.4 I/h/kg
half-life [3]: 30 h
Vd [3]: 6.9 L/kg
half-life [1, 4]: 29 h
AUCnorm [1, 5]: 1.9 kg·h/L
F [1, 5]: 74%

Cc1cc(-c2nc(-c3ccc(OC(F)(F)F)cc3)no2)nn1Cc1cccc(N2CC(O)C2)c1 [Example 1, 1-{3-[(5-Methyl-3-{3-[4-(trifluoromethoxy)phenyl]-1,2,4-oxadiazol-5-yl}-1H-pyrazol-1-yl)methyl]phenyl}azetidin-3-ol]
half-life [3]: 6.8 h
clearance [3]: 26.7 mL/min/kg
Vd [3]: 12 L/kg
AUCnorm ([1]; Example 1 in rat plasma after p.o. administration of prodrug Example 15, 1 mg/kg crystalline substance as tylose suspension in water): 0.35 kg·h/L
half-life [1, 4]: 12 h
AUCnorm [1, 5]: 0.43 kg·h/L
F [1, 5]: 68%

Cc1cc(-c2nc(-c3ccc(SC(F)(F)F)cc3)no2)nn1Cc1cccc(N2CCC(O)CC2)c1 [Example 14, 1-(3-{[5-Methyl-3-(3-{4-[(trifluoromethyl)sulphanyl]phenyl}-1,2,4-oxadiazol-5-yl)-1H-pyrazol-1-yl]methyl}phenyl)piperidin-4-ol]
half-life [3]: 8.2 h
clearance [3]: 12 mL/min/kg
Vd [3]: 7.8 L/kg
